The values that follow come from US20070191336A1 (priority 2003, published 2007).

The target in one test is T1, phospho p-38 alpha kinase (Homo sapiens, UniProt Q16539).
T1 construct: purchased Panvera
T1 sequence (Q16539 whole entry): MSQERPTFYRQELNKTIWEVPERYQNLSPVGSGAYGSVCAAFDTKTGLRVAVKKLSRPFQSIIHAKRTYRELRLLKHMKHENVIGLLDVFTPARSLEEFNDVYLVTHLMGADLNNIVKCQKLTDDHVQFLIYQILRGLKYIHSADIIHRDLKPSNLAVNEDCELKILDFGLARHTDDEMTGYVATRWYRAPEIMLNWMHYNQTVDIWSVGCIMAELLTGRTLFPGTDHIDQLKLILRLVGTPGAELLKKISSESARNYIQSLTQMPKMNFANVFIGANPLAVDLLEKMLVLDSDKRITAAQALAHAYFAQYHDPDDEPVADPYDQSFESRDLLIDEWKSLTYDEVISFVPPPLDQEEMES
Put plainly: P-38 alpha kinase assay (spectrophotometric, pyruvate kinase/lactate dehydrogenase coupled). It is filed as biochemical. The conditions noted are these: Table 3; rates from […] to 2 h time frame. As for the experimental part: In this assay, the oxidation of NADH was continuously measured spectrophometrically. […] The reaction was initiated by adding ATP. The absorption at 340 nm was monitored continuously for up to 4 hours at 30° C. on Polarstar Optima plate reader (BMG). The kinase activity (reaction rate) was calculated from the slope at the time frame from 1.5 h to 2 h.
For inhibition determinations, test compounds were incubated with the reaction mixture for ˜5 min before adding ATP to start the reaction. […] IC50 values were calculated from a series of % inhibition values determined at a range of concentrations of each inhibitor using Prism to process the data and fit inhibition curves. Generally, the rates obtained at the time frame of 1.5 h to 2 h were used for these calculations.
As a reminder, the IC50 is the concentration needed to halve the response being measured. Read a low IC50 as inhibition by little substance. As for `CC(C)(C)c1cc(NC(=O)Nc2cccc(F)c2F)n(-c2cccc(CO)c2)n1` [Example 395, 1-{3-t-butyl-1-[3-(hydroxymethyl)phenyl]-1H-pyrazol-5-yl}-3-(2,3-difluorophenyl)urea], the IC50 turned out to be 56 nM.

Consider `CC(C)(C)c1cc(NC(=O)Nc2cccc3ccccc23)n(-c2cccc(CN3C(=O)C(=O)NS3(=O)=O)c2)n1` [Example 482, 1-{5-t-butyl-2-[3-(1,1,3,4-tetraoxo-1λ^6-[1,2,5]thiadiazolidin-2-ylmethyl)phenyl]-2H-pyrazol-3-yl}-3-(naphthalen-1-yl)urea], for which the midpoint of inhibition, the IC50, lay at 84 nM. `COc1cccc(-n2nc(-c3ccccc3)cc2NC(=O)Nc2cccc(Cl)c2Cl)c1` [Example 335]: 14 nM corresponded to half-maximal inhibition (IC50). On the same count and under the same terms, under `COc1cccc(-n2nc(C(C)(C)C)cc2NC(=O)Nc2ccc(C#N)cc2)c1` [Example 322, 1-(3-t-butyl-1-(3-methoxyphenyl)-1H-pyrazol-5-yl)-3-(4-cyanophenyl)urea] stands 2020 nM; under `CC(C)(C)c1cc(NC(=O)Nc2ccccc2F)n(-c2cccc(CO)c2)n1` [Example 303, 1-{3-t-butyl-1-[3-(hydroxymethyl)phenyl]-1H-pyrazol-5-yl}-3-(2-fluorophenyl)urea], 89 nM; under `CC(C)(C)c1cc(NC(=O)Nc2ccc(Cl)cc2)n(-c2cccc(CNC(=O)N3CCOCC3)c2)n1` [Example 489, 1-(3-t-butyl-1-{3-[(morpholine-4-carboxamido)methyl]phenyl}-1H-pyrazol-5-yl)-3-(4-chlorophenyl)urea], 520 nM. On the same count and under the same terms, the result for `CC(C)(C)C1=NC(c2ccc(CC(=O)O)cc2)C(NC(=O)Nc2ccc(Cl)cc2)=C1` (centres unmarked) [Example 506, 2-(4-{5-t-butyl-3-[3-(4-chlorophenyl)ureido]-2H-pyrrol-2-yl}-phenyl)acetic acid] reads 42 nM; that for `COc1cccc(-n2nc(C(C)(C)C)cc2NC(=O)Nc2cccc(F)c2F)c1` [Example 345, 1-[3-t-butyl-1-(3-methoxy-phenyl)-1H-pyrazol-5-yl]-3-(2,3-difluorophenyl)urea], 270 nM; that for `COc1cccc(-n2nc(C(C)(C)C)cc2NC(=O)Nc2ccc(C(F)(F)F)cc2)c1` [Example 314, 1-(3-t-butyl-1-(3-methoxyphenyl)-1H-pyrazol-5-yl)-3-(4-(trifluoromethyl)phenyl)urea], 250 nM. Same read-out and setting: the result for `CC(C)(C)c1cc(NC(=O)Nc2ccc(Cl)cc2)n(-c2cccc(CNC(=O)N3CCCC3)c2)n1` [Example 490, 1-(3-t-butyl-1-{3-[(pyrrolidine-1-carboxamido)methyl]phenyl}-1H-pyrazol-5-yl)-3-(4-chlorophenyl)urea] reads 340 nM. Consider `CC(C)(C)c1cc(NC(=O)Nc2ccc3c(c2)OCO3)n(-c2ccc3c(c2)CNCC3)n1` [Example 513, 1-benzo[d][1,3]dioxol-5-yl-3-[3-t-butyl-1-(1,2,3,4-tetrahydroisoquinolin-7-yl)-1H-pyrazol-5-yl]urea], for which half-maximal inhibition (IC50) was put at 410 nM. Same read-out and setting: under `COc1cccc(NC(=O)Nc2cc(-c3ccccc3)nn2-c2cccc(OC)c2)c1` [Example 334, 1-(3-methoxyphenyl)-3-(1-(3-methoxyphenyl)-3-phenyl-1H-pyrazol-5-yl)urea] stands 2200 nM; under `CC(C)(C)c1cc(NC(=O)Nc2cccc(Cl)c2Cl)n(-c2ccc(CO)cc2)n1` [Example 466, 1-{3-t-butyl-1-[4-(hydroxymethyl)phenyl]-1H-pyrazol-5-yl}-3-(2,3-dichloro-phenyl)urea], 7 nM; under `CC(C)(C)c1cc(NC(=O)Nc2cccc(Cl)c2Cl)n(-c2cccc(CCN)c2)n1` [Example 374, 1-{1-[3-(2-aminoethyl)phenyl]-3-t-butyl-1H-pyrazol-5-yl}-3-(2,3-dichlorophenyl)urea], 37 nM. The same measure, in the same setting: the result for `CC(C)(C)c1cc(NC(=O)Nc2cccc3ccccc23)n(-c2cccc(CN3C(=O)CCC3=O)c2)n1` [Example 308, 1-(3-t-butyl-1-{3-[(2,5-dioxopyrrolidin-1-yl)methyl]phenyl}-1H-pyrazol-5-yl)-3-(naphthalen-1-yl)urea] reads 120 nM; that for `CC(Cc1ccc(-n2nc(C(C)(C)C)cc2NC(=O)Nc2cccc3ccccc23)cc1)C(=O)O` (centres unmarked) [Example 428, 3-(4-{3-t-butyl-5-[3-(naphthalen-1-yl)ureido]-1H-pyrazol-1-yl}phenyl)-2-methylpropanoic acid], 140 nM; that for `CC(C)(C)c1cc(NC(=O)Nc2ccccc2F)n(-c2cccc(CCC(=O)O)c2)n1` [Example 363, 3-(3-{3-t-butyl-5-[3-(2-fluorophenyl)ureido]-11H-pyrazol-1-yl}-phenyl)propionic acid], 190 nM. Same read-out and setting: the result for `CC(C)c1cc(NC(=O)Nc2cccc3ccccc23)n(-c2ccc(C(O)C(F)(F)F)cc2)n1` (centres unmarked) [Example 514, 1-(1-(4-(2,2,2-trifluoro-1-hydroxyethyl)phenyl)-3-isopropyl-1H-pyrazol-5-yl)-3-(naphthalen-1-yl)urea] reads 570 nM; that for `CC(C)(C)c1cc(NC(=O)Nc2cccc(Cl)c2Cl)n(-c2cccc(C(C)(C)O)c2)n1` [Example 476, 1-{3-t-butyl-1-[3-(2-hydroxypropan-2-yl)phenyl]-1H-pyrazol-5-yl}-3-(2,3-dichlorophenyl)urea], 24 nM; that for `CC(Cc1cccc(-n2nc(C(C)(C)C)cc2NC(=O)Nc2cccc(Cl)c2Cl)c1)C(=O)O` (centres unmarked) [Example 426, 3-(3-{3-t-butyl-5-[3-(2,3-dichlorophenyl)ureido]-1H-pyrazol-1-yl}-phenyl)-2-methylpropanoic acid], 13 nM.

The test is the same for the next values; noted with them: read-out: % Inhibition @ concentration, Table 3; at 0.1 uM.
Turning to `CC(C)(C)c1cc(NC(=O)Nc2cccc(Cl)c2Cl)n(-c2cccc(Cn3c(=O)[nH]n(-c4ccccc4)c3=O)c2)n1` [Example 499, 1-(3-t-butyl-1-{3-[(3,5-dioxo-1-phenyl-1,2,4-triazolidin-4-yl)methyl]phenyl}-1H-pyrazol-5-yl)-3-(2,3-dichlorophenyl)urea], the inhibition at 0.1 µM was 78%.

The test is the same for the next values; noted with them: read-out: % Inhibition @ concentration, Table 3; at 1 uM.
`CCOC(=O)C(C)Cc1cccc(-n2nc(C(C)(C)C)cc2NC(=O)Nc2cccc3ccccc23)c1` (racemic) [Example 200]: the inhibition at 1 µM turned out to be 73%. Still for that read-out and setting: under `CC(C)(C)c1cc(NC(=O)Nc2cccc(Cl)c2Cl)n(-c2cccc(Cn3c(=O)[nH]n(-c4ccccc4)c3=O)c2)n1` [Example 499, 1-(3-t-butyl-1-{3-[(3,5-dioxo-1-phenyl-1,2,4-triazolidin-4-yl)methyl]phenyl}-1H-pyrazol-5-yl)-3-(2,3-dichlorophenyl)urea] stands 95%. On the same count and under the same terms, the result for `CC(C)(C)c1cc(NC(=O)Nc2ccc(F)cc2)n(-c2cccc(Cn3c(=O)[nH]n(-c4ccccc4)c3=O)c2)n1` [Example 498, 1-(3-t-butyl-1-{3-[(3,5-dioxo-1-phenyl-1,2,4-triazolidin-4-yl)methyl]phenyl}-1H-pyrazol-5-yl)-3-(4-fluorophenyl)urea] reads 25%.

Staying with this test, now noted: read-out: % Inhibition @ concentration, Table 3; at 10 uM.
Turning to `CCOC(=O)CCc1cccc(-n2nc(C(C)(C)C)cc2NC(=O)Nc2ccc(OC)cc2)c1` [Example 147, 3-(3-{3-t-butyl-5-[3-(4-methoxy-phenyl)-ureido]-pyrazol-1-yl}-phenyl)-propionic acid ethyl ester], the inhibition at 10 µM amounted to 27%. Consider `CCOC(=O)CCc1cccc(-n2nc(C(C)(C)C)cc2NC(=O)Nc2cccc3cccnc23)c1` [Example 366, 3-(3-{3-t-butyl-5-[3-(quinolin-8-yl)ureido]-1H-pyrazol-1-yl}phenyl)-propionic acid ethyl ester], for which the inhibition at 10 µM was found to be 53%.
